Measured values as given in BindingDB's records for doi:10.1021/np900435d (University of Florence, 2009).

Experiment: Inhibition of rat intestinal maltase

Row | SMILES | IC50 [µM]
1 | O[C@H]1[C@H](O)[C@@H](O)CN2C[C@@H](O)[C@@H](O)[C@H]12 [(-)-uniflorine A] | 12
2 | O[C@H]1[C@H]2[C@H](O)[C@H](O)CN2[C@H](O)C[C@H]1O [uniflorine B] | 4
